Patent US8802664B2 (Bioproject, priority 2010, dated 2014)
Counter-ions that a name gives are not always drawn.

melting point [°C] | SMILES
60 | CN1CCC(OC(c2cccc(OCCCn3cncn3)c2)c2nc3ccccc3s2)CC1 (stereo not shown) (as salt: oxalate) [Example 348, 2-{(1-methylpiperidin-4-yloxy)[3-(3-[1,2,4]triazol-1-yl-propoxy)phenyl]methyl}benzothiazole]
160 | Cc1cc(C(NC2CCN(C)CC2)c2nc3ccccc3s2)ccc1F (stereo not shown) (as salt: oxalate) [Example 35, [benzothiazol-2-yl(4-fluoro-3-methyl-phenyl)methyl](1-methylpiperidin-4-yl)amine]
99 | CN1CCC(OC(c2cccc(SCCCN)c2)c2nc3ccccc3s2)CC1 (stereo not shown) (as salt: oxalate) [Example 314, 3-{3-[benzothiazol-2-yl(1-methylpiperidin-4-yloxy)methyl]phenylsulfanyl}propylamine]
73 | CN1CCC(OC(c2cccc(OCC=CCO)c2)c2nc3ccccc3s2)CC1 (stereo not shown) (as salt: oxalate) [Example 422, 4-{3-[benzothiazol-2-yl(1-methylpiperidin-4-yloxy)methyl]phenoxy}but-2-en-1-ol]
109 | COCCn1c(C(OC2CCN(C)CC2)c2cccc(C#CCCCCN)c2)nc2ccccc21 (stereo not shown) (as salt: oxalate) [Example 501]
136 | CN1CCC(OC(c2cccc(OCCF)c2)c2nc3ccccc3[nH]2)CC1 (stereo not shown) (as salt: oxalate) [Example 476]
92 | CN1CCC(OC(c2cccc(OCCN3CCN(C(=O)OC(C)(C)C)CC3)c2)c2nc3ccccc3[nH]2)CC1 (stereo not shown) (as salt: oxalate) [Example 369, 4-(2-{3-[(1H-benzimidazol-2-yl)(1-methylpiperidin-4-yloxy)methyl]phenoxy}ethyl)piperazine-1-carboxylic acid tert-butyl ester]
174 | Cc1ccc(C(OC2CCN(C)CC2)c2nc3ccccc3s2)s1 (stereo not shown) (as salt: oxalate) [Example 19, 2-[(1-methylpiperidin-4-yloxy)(5-methylthiophen-2-yl)methyl]benzothiazole]
180 | CN1CCC(OC(c2cccc(C#CCCCNC(=N)N)c2)c2nc3ccccc3s2)CC1 (stereo not shown) (as salt: hydrochloride) [Example 340, N-(5-{3-[benzothiazol-2-yl(1-methylpiperidin-4-yloxy)methyl]phenyl}pent-4-ynyl)guanidine]
98 | CN1CCC(OC(c2cccc(OCc3cccc(F)c3F)c2)c2nc3ccccc3s2)CC1 (stereo not shown) (as salt: oxalate) [Example 161, 2-[[3-(2,3-difluorobenzyloxy)phenyl](1-methylpiperidin-4-yloxy)methyl]benzothiazole]
72 | CC(=O)CCCOc1cccc(C(OC2CCN(C)CC2)c2nc3ccccc3s2)c1 (stereo not shown) (as salt: oxalate) [Example 186, 5-{3-[benzothiazol-2-yl(1-methylpiperidin-4-yloxy)methyl]phenoxy}pentan-2-one]
145 | CN1CCC(OC(c2cccc(N3CCC(N)C3)c2)c2nc3ccccc3s2)CC1 (stereo not shown) (as salt: oxalate) [Example 423, 1-{3-[benzothiazol-2-yl(1-methylpiperidin-4-yloxy)methyl]phenyl}pyrrolidin-3-ylamine]
80 | CN1CCC(OC(c2cccc(SCCN)c2)c2nc3ccccc3s2)CC1 (stereo not shown) (as salt: oxalate) [Example 269, 2-{3-[benzothiazol-2-yl(1-methylpiperidin-4-yloxy)methyl]phenylsulfanyl}ethylamine]
76 | CN1CCC(OC(c2cccc(I)c2)c2nc3ccccc3n2C)CC1 (stereo not shown) (as salt: oxalate) [Example 472, 2-[(3-iodophenyl)(1-methylpiperidin-4-yloxy)methyl]-1-methyl-1H-benzimidazole]
110 | Cc1ccc(C(NC2CCN(C)CC2)c2nc3ccccc3s2)cc1 (stereo not shown) (as salt: oxalate) [Example 36, (benzothiazol-2-yl-p-tolylmethyl)(1-methylpiperidin-4-yl)amine]
59 | CCCOc1cccc(C(OC2CCN(C)CC2)c2nc3ccccc3s2)c1 (stereo not shown) (as salt: hydrochloride) [Example 26, 2-[(1-methylpiperidin-4-yloxy)(3-propoxy-phenyl)methyl]benzothiazole]
110 | CN1CCC(OC(c2ccc3c(c2)OCO3)c2nc3ccccc3s2)CC1 (stereo not shown) (as salt: hydrochloride) [Example 20, 2-[benzo[1,3]dioxol-5-yl(1-methylpiperidin-4-yloxy)methyl]benzothiazole]
110 | CN1CCC(OC(c2cccc(SCCCCN)c2)c2nc3cc(F)c(F)c(F)c3[nH]2)CC1 (stereo not shown) (as salt: oxalate) [Example 493]
77 | COc1cccc(COc2cccc(C(OC3CCN(C)CC3)c3nc4ccccc4s3)c2)c1 (stereo not shown) (as salt: oxalate) [Example 185, 2-[[3-(3-methoxybenzyloxy)phenyl](1-methylpiperidin-4-yloxy)methyl]benzothiazole]
80 | CN1CCC(OC(c2cccc(OCc3cccc(C(F)(F)F)c3)c2)c2nc3ccccc3s2)CC1 (stereo not shown) (as salt: oxalate) [Example 187, 2-{(1-methylpiperidin-4-yloxy)[3-(3-trifluoromethyl-benzyloxy)phenyl]methyl}benzothiazole]
74 | CC(=O)OC1CCN(c2cccc(C(OC3CCN(C)CC3)c3nc4ccccc4s3)c2)CC1 (stereo not shown) (as salt: oxalate) [Example 413, acetic acid 1-{3-[benzothiazol-2-yl(1-methylpiperidin-4-yloxy)methyl]phenyl}piperidin-4-yl ester]
177 | Cc1ccc(C(OC2CCN(C)CC2)c2nc3ccccc3s2)cc1 (stereo not shown) (as salt: oxalate) [Example 7, 2-[(1-methylpiperidin-4-yloxy)-p-tolylmethyl]benzothiazole]
160 | CN1CCC(OC(c2cccc(OCCN3CCCCC3)c2)c2nc3ccccc3[nH]2)CC1 (stereo not shown) (as salt: oxalate) [Example 356, 2-{(1-methylpiperidin-4-yloxy)[3-(2-piperidin-1-yl-ethoxy)phenyl]methyl}-1H-benzimidazole]
125 | CNCCOc1cccc(C(OC2CCN(C)CC2)c2nc3ccccc3s2)c1 (stereo not shown) (as salt: oxalate) [Example 279, (2-{3-[benzothiazol-2-yl(1-methylpiperidin-4-yloxy)methyl]phenoxy}ethyl)methyl-amine]
140 | CC(=O)c1cccc(-c2cccc(C(OC3CCN(C)CC3)c3nc4ccccc4[nH]3)c2)c1 (stereo not shown) (as salt: oxalate) [Example 110, 1-{3′-[(1H-benzimidazol-2-yl)(1-methylpiperidin-4-yloxy)methyl]biphenyl-3-yl}ethanone]
182 | CN1CCC(OC(c2nc3ccccc3s2)c2ccc(F)cc2F)CC1 (stereo not shown) (as salt: oxalate) [Example 12, 2-[(2,4-difluorophenyl)(1-methyl-piperidin-4-yloxy)methyl]-benzothiazole]
111 | CN1CCC(OC(c2cccc(N3CCOCC3)c2)c2nc3ccccc3s2)CC1 (stereo not shown) (as salt: oxalate) [Example 243, 2-[(1-methylpiperidin-4-yloxy)(3-morpholin-4-yl-phenyl)methyl]benzothiazole]
72 | COc1ccc(C(OC2CCN(C)CC2)c2nc3ccccc3s2)cc1 (stereo not shown) (as salt: hydrochloride) [Example 14, 2-[(4-methoxyphenyl)(1-methylpiperidin-4-yloxy)methyl]benzothiazole]
